Measured values reported in patent US4855304A, “Dinucleoside pyrophosphates and pyrophosphate homologs as plant antivirals” (Repligen Corporation, priority 1985, dated 1989).

What was measured:
[1] = system: TMV (tobacco mosaic virus) replication in intact N. glutinosa plants; test: Antiviral activity in N. glutinosa intact plants, infectivity test (local lesions); type: in vivo, tobacco mosaic virus; Nicotiana glutinosa; conditions: for induced resistance to TMV infection in the non-treated half-leaf: 1 μM (10^-6 M)
Procedure: (§1) Nicotiana glutinosa and N. tabacum var. samsum plants were grown in potting medium in greenhouse conditions (25±3° C., and constant illumination). The plants were fertilized with a commercial fertilizer every two weeks. Plants were used at 5-8 leaf stage (Devash, Y., Biggs, S. and Sela, I. [1982] Science 216: 1415-1416; Devash, Y. et al. [1984] Jour. Biol. Chem. 259: 3482-3486).
The ability of the antiviral dinucleotides to inhibit TMV replication in intact N. glutinosa plants (containing N-gene for TMV localization) was determined by infectivity tests. Solutions containing 5 μg/ml TMV, 0.1 μg/ml carborundum, and antiviral dinucleotide were applied to 5 half-leaves of N. glutinosa. The opposite half-leaves served as controls and were inoculated with infecting solution containing TMV and carborundum but no dinucleotides. The infection was allowed to proceed 48 hr. Inhibition of TMV replication was calculated as the percent of local lesions produced in antiviral compound treated half-leaves, as compared to control half-leaves.

[2] = system: TMV (tobacco mosaic virus) replication in TMV-infected tobacco leaf discs; test: Antiviral activity in TMV-infected leaf discs (TMV content by ELISA); type: cell-based, tobacco mosaic virus; leaf discs of N. tabacum var. samsun; conditions: for ng TMV/ml: control 550 (Table 4)
Procedure: Assays for antiviral activity in TMV-infected leaf discs were done using leaves of N. tabacum var. samsun in which TMV is systemically spread. Leaves were mechanically inoculated with purified TMV (5 μg/ml in 0.01M sodium phosphate buffer, pH 7.6, containing 0.1 g/ml of carborundum as an abrasive). Immediately after infection, leaf discs (6.5 mm diameter) were punched out of the inoculated leaves and placed in a beaker containing 0.01M sodium phosphate, pH 7.6.
selected at random from this common pool and placed onto separate petri dishes, each containing 18 ml of 10 mM 4-(2-hydroxyethyl)-1-piperazine ethanesulfonic acid (HEPES)-KOH, pH 7.05, 188 mg/L Na2 HPO4 --7H2 O. […] At the end of the 1 hr incubation, the buffer containing the antiviral dinucleotide was replaced by a buffer lacking the antiviral dinucleotide for another hr. The discs were then washed with 0.01M sodium phosphate, pH 7.6, and were allowed to incubate for an additional 72 hr in phosphate buffer (Devash, Y., Biggs, S. and Sela, I. [1982] Science 216: 1415-1416; Devash, Y. et al. [1984] J. Biol. Chem. 259: 3482-3486). The discs were homogenized in 0.01M sodiuM phosphate buffer, pH 7.6, and the TMV content was determined by enzyme-linked immunosorbent assay (ELISA) as described below.
(§2) The TMV content of the homogenates was determined by ELISA essentially by the method of Clark and Adams ([1977] J. Gen. Virol. 34: 475-483) but with the following order of layers on the microtiter plates.
(§3) (a) the γ-globulin fraction of a serum obtained from a chicken immunized against TMV was absorbed directly to the plate.
(§4) (b) The next layer was the tested sample (at various dilutions) or a series of purified TMV suspensions at known concentrations (calibration curve).
(§5) (c) The third layer was the γ-globulin from the serum of a TMV-immunized rabbit.
(§6) (d) The final layer was goat antibody to rabbit immunoglobulin G conjugated with alkaline phosphatase (Sigma). The release of phosphate from p-nitrophenyl phosphate due to the antibody-conjugated alkaline phosphatase was monitored spectrophotometrically with a Microplate reader (Dynatech Diagnostics, Inc. South Windham, ME) and was proportional to TMV concentration in a log linear manner for about two logs (<2 ng to>200 ng). (Devash, Y., Biggs, S. and Sela, I. [1982] Science 216: 1415-1416)
The γ-globulin fraction of serum obtained from chickens and rabbits immunized against TMV were generous gifts from Professor Ilan Sela, The Hebrew University of Jerusalem, Agriculture Faculty, Rehobot, Israel.

[3] = system: TMV (tobacco mosaic virus) in N. tabacum plants; test: Root application to N. tabacum intact plants (TMV content by ELISA); type: in vivo, tobacco mosaic virus; Nicotiana tabacum
Procedure: as §1
Nicotiana tabacum plants were used as a source of plant tissue in which TMV is spread systemically.
(a) Root application: N. tabacum plants were removed from their pots and transferred into 50 ml tubes containing 10 ml of 10 mM HEPES-KOH, pH 7.6, and the antiviral dinucleotides. Two hr later, plants were transferred into 50 ml tubes lacking the antiviral compound and were inoculated by TMV as described above. Twenty-four hr later leaves were homogenized in 0.01M sodium phosphate buffer, pH 7.6, (1 g leaves/3 ml buffer) and TMV content was determined by ELISA.
as §2, §3, §4, §5, §6
In order to establish the relationship of the induced resistance to the N-gene for viral localization and to the transmission ability of the compounds, a comparison between leaf application and root application of antiviral dinucleotides to N. tabacum plants was made. N. tabacum plants were removed into vials containing 10 ml of 10 mM HEPES-KOH, pH 7.6, and 1 μM of antiviral dinucleotide. The plant roots were allowed to remain in the solutions for 2 hr and then were transferred to vials containing the buffer without the antiviral compounds.
The plants then were infected with TMV as above. (See section 4. Antiviral activity on N. tabacum intact plants, paragraph [a].) Another group of N. tabacum plants was tested as described in the above-noted section, paragraph (b).

[4] = 10 nM (10^-8 M), non-treated half-leaf
[5] = 10 nM (10^-8 M), treated half-leaf
[6] = 100 nM (10^-7 M), non-treated half-leaf
[7] = 100 nM (10^-7 M), treated half-leaf
[8] = 1000 nM (10^-6 M), non-treated half-leaf
[9] = 1000 nM (10^-6 M), treated half-leaf

Row | SMILES | induced resistance to TMV infection in the non-treated half-leaf ([1]; in words) | percent protection as compared to control TMV infected leaves [1, 4] [%] | percent protection as compared to control TMV infected leaves [1, 5] [%] | percent protection as compared to control TMV infected leaves [1, 6] [%] | percent protection as compared to control TMV infected leaves [1, 7] [%] | percent protection as compared to control TMV infected leaves [1, 8] [%] | percent protection as compared to control TMV infected leaves [1, 9] [%] | also measured
1 | Nc1ncnc2c1ncn2[C@@H]1O[C@H](COP(=O)(O)OP(=O)(O)O[C@H]2[C@@H](O)[C@H](n3cnc4c(N)ncnc43)O[C@@H]2CO)[C@@H](O)[C@H]1O [A3'pp5'A, adenosine 3',5'-diphospho-adenosine] | resulted in an induced resistance to TMV infection even in the non-treated half-leaf | – | – | – | – | – | – | percent protection as compared to control TMV infected leaves ([1]; 10^-6 M, non-treated half leaf (Table 5)): 93%; percent protection as compared to control TMV infected leaves ([1]; 10^-6 M, treated half leaf (Table 5)): 100%; inhibition of TMV replication (inhibition of formation of local lesions) ([1]; N. glutinosa intact plants, in words): inhibited the TMV replication; ng TMV/ml ([2]; 2 × 10^-9 M): 550 ng TMV/ml; ng TMV/ml ([2]; 20 × 10^-9 M): 200 ng TMV/ml; ng TMV/ml ([2]; 200 × 10^-9 M): 150 ng TMV/ml; effectiveness in inhibiting TMV replication compared with 2',5'-adenylate trimer core ([2]; TMV-infected discs, in words): confer similar antiviral state; inhibition at 0.002 µM ([2]; Tobacco mosaic virus, 2 × 10^-9 M (Table 4), read-out: % Inhibition as Related to Control): 0%; inhibition at 0.02 µM ([2]; Tobacco mosaic virus, 20 × 10^-9 M (Table 4), read-out: % Inhibition as Related to Control): 64%; inhibition at 0.2 µM ([2]; Tobacco mosaic virus, 200 × 10^-9 M (Table 4), read-out: % Inhibition as Related to Control): 73%
2 | Nc1ncnc2c1ncn2[C@@H]1O[C@H](COP(=O)(O)OP(=O)(O)O[C@@H]2[C@H](O)[C@@H](CO)O[C@H]2n2cnc3c(N)ncnc32)[C@@H](O)[C@H]1O [Adenosine 2',5'-p^1,p^2-diadenosine, adenosine 2',5'-diphospho-adenosine] | – | – | – | – | – | – | – | inhibition of TMV replication ([2]; TMV-infected discs, in words): effective inhibitor of TMV replication; inhibition at 1 µM ([2]; Tobacco mosaic virus, 10^-6 M (Table 6), read-out: % Inhibition as related to control): 42%; inhibition at 0.1 µM ([2]; Tobacco mosaic virus, 10^-7 M (Table 6), read-out: % Inhibition as related to control): 37%; inhibition at 0.01 µM ([2]; Tobacco mosaic virus, 10^-8 M (Table 6), read-out: % Inhibition as related to control): 26.4%; inhibition at 0.001 µM ([2]; Tobacco mosaic virus, 10^-9 M (Table 6), read-out: % Inhibition as related to control): 21%; inhibition at 0.0001 µM ([2]; Tobacco mosaic virus, 10^-10 M (Table 6), read-out: % Inhibition as related to control): 0%
3 | Nc1ncnc2c1ncn2[C@@H]1O[C@H](COP(=O)(O)OP(=O)(O)OC[C@H]2O[C@@H](n3cnc4c(N)ncnc43)[C@@H]3OP(=O)(O)O[C@@H]32)[C@H]2OP(=O)(O)O[C@H]21 [P<A5'PP5'A>P, 2',3'-cyclic phospho-diadenosine 5',5'"-p^1,p^2-diphosphate] | – | – | – | – | – | – | – | antiviral activity/potency on structural modification ([2]; in words, compared to dinucleotides with 2 and 3 internal phosphates): did not decrease their antiviral potency
4 | Nc1nc2c(ncn2[C@@H]2O[C@H](COP(=O)(O)OP(=O)(O)OC[C@H]3O[C@@H](n4cnc5c(N)ncnc54)[C@H](O)[C@@H]3O)[C@@H](O)[C@H]2O)c(=O)[nH]1 [A5'pp5'G, adenosine 5',5'"-p^1,p^2 -diphospho-guanosine] | resulted in an induced resistance to TMV infection even in the non-treated half-leaf | 59.8 | 84.8 | 44.7 | 89.5 | 100 | 100 | suppression (inhibition) of the virus ([3]; 1 μM (10^-6 M), exposure of plant roots): 98-100%; % Protection ([3]; 1 μM, roots, 2 hr): 98%; ng TMV/g of leaves ([3]; 1 μM, roots, 2 hr, control 200): 4 ng TMV/g of leaves
5 | Nc1ccn([C@@H]2O[C@H](COP(=O)(O)OP(=O)(O)OC[C@H]3O[C@@H](n4cnc5c(N)ncnc54)[C@H](O)[C@@H]3O)[C@@H](O)[C@H]2O)c(=O)n1 [A5'pp5'C, adenosine 5',5'"-p^1,p^2 -diphospho-cytidine] | resulted in an induced resistance to TMV infection even in the non-treated half-leaf | 36.1 | 55.0 | 35.5 | 51.9 | 32.9 | 63.5 | –
6 | Nc1ncnc2c1ncn2[C@@H]1O[C@H](COP(=O)(O)OP(=O)(O)OC[C@H]2O[C@@H](n3ccc(=O)[nH]c3=O)[C@H](O)[C@@H]2O)[C@@H](O)[C@H]1O [A5'pp5'U, adenosine 5',5'"-p^1,p^2 -diphospho-uridine] | – | 5.2 | 38.1 | 0 | 0 | 21.0 | 80.2 | –
